Assay results taken from US10645927B2, “Antimicrobial wipe” (Carefusion 2200, Inc., priority 2015, dated 2020).
Counter-ions that a name gives are not always drawn. Marks after values point to notes of the source that are not given here.

Tested on: Staphylococcus aureus ATCC 29213
Assay: Bactericidal activity by time kill method
Format: cell-based
Settings: for Average Log: Baseline 7.123; for concentration required to deliver >3 log reduction in viable count: within 30 seconds of contact time
Procedure: Multiple surfactants in solution formulations were tested for use with the wipes. Effects of individual excipients such as phosphate buffer, polysorbate 20, nonoxynol-9, Cremophor® RH-40, dimethicone, and combinations of these products were investigated to determine the possibility of adverse effects on the antimicrobial efficacy of octenidine dihydrochloride. Bactericidal activities of octenidine dihydrochloride alone and in combinations with various excipients (Table 11) were tested by a time kill method using Staphylococcus aureus ATCC 29213 as test organism (Table 12).
Neutralizing effects of two similar surfactants, 0.5% Cremophor® RH40 and 0.5% polysorbate 20, on the bactericidal activity of octenidine dihydrochloride were tested using the Staphylococcus aureus ATCC 29213 as test organism (Table 13 and 14).

[1] = OCT 20 PPM, 0.5% Cremophor ® RH40, 30 seconds
[2] = OCT 20 PPM, 0.5% Polysorbate 20, 30 seconds
[3] = OCT 20 PPM, Aqueous, 30 seconds
[4] = OCT 100 PPM, 0.5% Cremophor ® RH40, 30 seconds
[5] = OCT 100 PPM, 0.5% Polysorbate 20, 30 seconds
[6] = OCT 100 PPM, Aqueous, 30 seconds
[7] = OCT 500 PPM, 0.5% Cremophor ® RH40, 30 seconds
[8] = OCT 500 PPM, 0.5% Polysorbate 20, 30 seconds
[9] = OCT 500 PPM, Aqueous, 30 seconds
[10] = OCT 4000 PPM, Full base formulation with Cremophor ® RH40
[11] = OCT 4000 PPM, Full base formulation with Polysorbate 20 (Table 13)

SMILES: CCCCCCCCN=c1ccn(CCCCCCCCCCn2ccc(=NCCCCCCCC)cc2)cc1 [OCT, octenidine dihydrochloride]
- Log Reduction (OCT 2 PPM in 0.1% Nonoxynol-9 in water, 30 seconds): 1.52
- Log Reduction (OCT 2 PPM in 0.25% Dimethicone in water, 30 seconds): 1.17
- Log Reduction (OCT 2 PPM in 1.5% Polysorbate 20 in water, 30 seconds): 0.30
- Log Reduction (OCT 2 PPM in Full base formulation with Nonoxynol-9 and Polysorbate 20 (Table 11), 30 seconds): 0.29
- Log Reduction (OCT 2 PPM in Full base formulation with Polysorbate 20 (Table 11), 30 seconds): 0.04
- Log Reduction (OCT 2 PPM in Phosphate Buffered Water, pH 6.0, 30 seconds): 1.39
- Log Reduction (OCT 2 PPM in Water, contact time 30 seconds): 3.41
- Log Reduction (OCT 20 PPM in 0.1% Nonoxynol-9 in water, 30 seconds): 2.94
- Log Reduction (OCT 20 PPM in 0.25% Dimethicone in water, 30 seconds): 1.41
- Log Reduction (OCT 20 PPM in 1.5% Polysorbate 20 in water, 30 seconds): 0.57
- Log Reduction (OCT 20 PPM in Full base formulation with Nonoxynol-9 and Polysorbate 20 (Table 11), 30 seconds): 0.58
- Log Reduction (OCT 20 PPM in Full base formulation with Polysorbate 20 (Table 11), 30 seconds): 0.35
- Log Reduction (OCT 20 PPM in Phosphate Buffered Water, pH 6.0, 30 seconds): 2.87
- Log Reduction (OCT 20 PPM in Water, contact time 30 seconds): 3.78
- Average Log Reduction [1]: 0.740
- Percent Reduction [1]: 81.808%
- Average Log [1]: 6.383
- Average Log Reduction [2]: 0.795
- Percent Reduction [2]: 83.979%
- Average Log [2]: 6.327
- Average Log Reduction [3]: 5.123
- Percent Reduction [3]: 99.999%
- Average Log [3]: 2.000
- Log Reduction (OCT 100 PPM in 0.1% Nonoxynol-9 in water, 30 seconds): 4.69
- Log Reduction (OCT 100 PPM in 0.25% Dimethicone in water, 30 seconds): 1.67
- Log Reduction (OCT 100 PPM in 1.5% Polysorbate 20 in water, 30 seconds): 1.01
- Log Reduction (OCT 100 PPM in Full base formulation with Nonoxynol-9 and Polysorbate 20 (Table 11), 30 seconds): 0.60
- Log Reduction (OCT 100 PPM in Full base formulation with Polysorbate 20 (Table 11), 30 seconds): 0.49
- Log Reduction (OCT 100 PPM in Phosphate Buffered Water, pH 6.0, 30 seconds): 4.78
- Log Reduction (OCT 100 PPM in Water, contact time 30 seconds): 4.65
- Average Log Reduction [4]: 1.472
- Percent Reduction [4]: 96.624%
- Average Log [4]: 5.651
- Average Log Reduction [5]: 1.205
- Percent Reduction [5]: 93.767%
- Average Log [5]: 5.917
- Average Log Reduction [6]: 5.123
- Percent Reduction [6]: 99.999%
- Average Log [6]: 2.000
- Log Reduction (OCT 500 PPM in 0.1% Nonoxynol-9 in water, 30 seconds): 5.12
- Log Reduction (OCT 500 PPM in 0.25% Dimethicone in water, 30 seconds): 2.12
- Log Reduction (OCT 500 PPM in 1.5% Polysorbate 20 in water, 30 seconds): 1.12
- Log Reduction (OCT 500 PPM in Full base formulation with Nonoxynol-9 and Polysorbate 20 (Table 11), 30 seconds): 1.40
- Log Reduction (OCT 500 PPM in Full base formulation with Polysorbate 20 (Table 11), 30 seconds): 0.76
- Log Reduction (OCT 500 PPM in Phosphate Buffered Water, pH 6.0, 30 seconds): 5.12
- Log Reduction (OCT 500 PPM in Water, contact time 30 seconds): 5.12
- Average Log Reduction [7]: 5.123
- Percent Reduction [7]: 99.999%
- Average Log [7]: 2.000
- Average Log Reduction [8]: 3.080
- Percent Reduction [8]: 99.917%
- Average Log [8]: 4.043
- Average Log Reduction [9]: 5.123
- Percent Reduction [9]: 99.999%
- Average Log [9]: 2.000
- Log Reduction (OCT 1000 PPM in Full base formulation with Nonoxynol-9 and Polysorbate 20, total kill, value is limit of detection): ≥ 3.94*
- Log Reduction (OCT 2000 PPM in Full base formulation with Nonoxynol-9 and Polysorbate 20, total kill, value is limit of detection): ≥ 4.14*
- Log Reduction (OCT 4000 PPM in Full base formulation with Nonoxynol-9 and Polysorbate 20, total kill, value is limit of detection): ≥ 4.14*
- Average Log Reduction [10]: 4.123
- Percent Reduction [10]: 99.992%
- Average Log [10]: 3.000
- Average Log Reduction [11]: 4.123
- Percent Reduction [11]: 99.992%
- Average Log [11]: 3.000
- percent reduction in viable count at 2 ppm (Staphylococcus aureus, ATCC29213, octenidine dihydrochloride alone, 2 PPM, contact time of 30 seconds): > 99.9%
- concentration required to show 99.9% reduction in viable count (dissolved in pH 6.0 phosphate buffered water): > 20 PPM
- microbicidal activity in the full base formulation (higher than 1000 PPM of octenidine dihydrochloride, full base formulation of Table 11): rapidly microbicidal
- concentration required for 99.9% reduction relative to the concentration in water (pH 6.0 phosphate buffered water vs water): > 10 times
- concentration required to deliver >3 log reduction in viable count (with 0.5% Cremophor® RH40): 500 PPM
- concentration required to deliver >3 log reduction in viable count (with 0.5% polysorbate 20): 500 PPM
